Here are results for one molecule from patent publication US4977138A, “FR901228 substance and preparation thereof” (Fujisawa Pharmaceutical Co., Ltd., priority 1988, dated 1990).

In brackets after ≈: the same amount, converted by molar mass.

Data set [1] can be described thus: Solubility of FR901228 substance in solvents. In kind it is physicochemical.
For data set [2], the system named is SW480 (colon cancer). As to the kind of experiment: Inhibition of human tumor cell growth in vitro (MTT cytotoxicity test). In kind it is cell-based. The conditions noted are these: four days. On the procedure:
(§1) The cytotoxicity test was performed in microtiter plates, with each well containing 3×10^3 tumor cells in 100 μl Dulbecco's minimum essential medium supplemented with 10% fetal calf serum, penicillin (50 units/ml) and streptomycin (50 μg/ml). The cells were incubated at 37° C. for four days and the colorimetric MTT [3-(4,5-dimethylthiazol-2-yl)-2,5-diphenyl tetrazolium bromide, made by Sigma] assay was performed according to the method described by Mosmann (J. Immunol. Methods, 65, 55-63, 1983). MTT was dissolved in phosphate buffer solution (PBS) at 5 mg/ml and filtered to sterilize and remove a small amount of insoluble residue. After the culture of human tumor cells was terminated, this MTT solution (10 μl per 100 μl medium) was added to all wells of an assay, and plates were further incubated at 37° C. for 4 hours. Acid-isopropanol (100 μl of 0.04N HCl in isopropanol) was added to all wells and mixed thoroughly to dissolve the dark blue crystals. After all crystals were dissolved, the plates were read on a 2-wavelength microplate photometer (Model MTP-22; Corona Electric Co., Ltd., Katsuta, Japan) at 550 nm, a reference wavelength of 660 nm. The object compound of this invention was dissolved in methanol and diluted in Dulbecco's minimum essential medium and added to the culture to give final concentration of 1 μg/ml or less.
Background: Formazan colour is commonly taken as a measure of viable cells.

The subject of data set [3] is MCF-7 (breast cancer). The data set is described as above. In kind it is cell-based. Particulars: four days. How it is done: as §1
Data set [4] has as its system A549 (lung cancer). Described as above. In kind it is cell-based. Particulars: four days. On the procedure: as §1
In data set [5] the test system is Shizosaccharomyces pombe. The data set is described as follows: Antimicrobial activity, agar dilution method in Sabouraud medium. In kind it is cell-based. The conditions noted are these: 48 hours incubation at 25° C. How it is done: (§2) Antimicrobial activity of FR901228 was performed by an agar dilution method in Sabouraud medium.
(§3) Minimum inhibitory concentration (MIC) is expressed in terms of μg/ml after 48 hours incubation at 25° C.
(Agar dilution tests growth on a series of plates holding different concentrations.)

Data set [6] deals with Aspergillus niger. The description is as above. It counts as cell-based. The conditions noted are these: 48 hours incubation at 25° C. On the procedure:
as §2, §3

The subject of data set [7] is Aureobasidium pullulans IFO 4466. The data set is described as above. The conditions noted are these: 48 hours incubation at 25° C. In kind it is cell-based. How it is done:
as §2, §3

The subject of data set [8] is P388 murine leukemia. As to the kind of experiment: Antitumor activity against P388 murine leukemia. In kind it is in vivo, BDFl mice. The conditions noted are these: for Mean Survival Time: once daily for four days from 24 hours after inoculation, BDFl mice; for Time (%) (T/C % of mean survival time): 100× treated group/control group. How it is done: Antitumor activity of FR901228 substance was determined in murine tumor system. P388 leukemia cells […] were implanted intraperitoneally into BDFl mice (female, 8 weeks old). Twenty-four hours after the inoculation of tumor cells, FR901228 substance was administered intraperitoneally to mice. Administrations of FR901228 substance were continued intraperitoneally once daily for another three days. FR901228 substance was suspended in 0.9% saline. Control mice received intraperitoneal doses of 0.9% saline.
Antitumor activity was expressed as the mean survival time of group and also expressed as the T/C % (100× treated group/control group) of mean survival time.

Setting [9] is: 0.32 mg/kg/day intraperitoneally.
[10] abbreviates: 1.0 mg/kg/day intraperitoneally.

In the case of `C/C=C1\NC(=O)[C@H]2CSSCC/C=C/[C@H](CC(=O)N[C@H](C(C)C)C(=O)N2)OC(=O)[C@H](C(C)C)NC1=O` [FR901228 substance], the Solubility entry is “soluble” in data set [1] (chloroform); “sparingly soluble” in data set [1] (ethanol); “soluble” in data set [1] (ethyl acetate); “insoluble” in data set [1] (hexane); “sparingly soluble” in data set [1] (methanol); “insoluble” in data set [1] (water). Further, the results for the IC50 in data set [2], in data set [3] and in data set [4] were 0.57 ng/mL (≈ 0.00105 µM), 0.99 ng/mL (≈ 0.00183 µM) and 0.82 ng/mL (≈ 0.00152 µM), respectively. For the same molecule, the MIC (usually the smallest concentration in the dilution series that meets the test's criterion for growth inhibition) in data set [5] came out at 10 µg/mL (≈ 18.5 µM); in data set [6] it was 100 µg/mL (≈ 185 µM); in data set [7], 10 µg/mL (≈ 18.5 µM). For the same molecule, the “Mean Survival Time” value was 14.25 days in data set [8] (setting [9]) and 15.25 days in data set [8] (setting [10]). The entries for the “Time (%) (T/C % of mean survival time)” value in data set [8] (setting [9]) and in data set [8] (setting [10]) were 158.3% and 169.4%, respectively.
